The source of these data is paper PMC12921516 (ACS Bio & Med Chem Au, 2025).

For orientation: IC50 means the concentration that gives 50% inhibition. By Km is commonly meant the concentration of substrate that gives half-maximal velocity. Usually Vmax stands for the top rate of the reaction or transport when substrate is in excess. In general, CC50 refers to the concentration at which the toxic effect on the cells reaches its halfway point. The low end stands for harm at low concentration, the high end for better tolerance by the cells.

Where two headings read alike, the source gives them in different places.

Data set [1] concerns the target T1, hTCPTP1–415 (Homo sapiens, UniProt P17706).
T1 construct: h TCPTP 1–415 IC 50 (μM ± S.D); made in house
T1 sequence (P17706 1-415): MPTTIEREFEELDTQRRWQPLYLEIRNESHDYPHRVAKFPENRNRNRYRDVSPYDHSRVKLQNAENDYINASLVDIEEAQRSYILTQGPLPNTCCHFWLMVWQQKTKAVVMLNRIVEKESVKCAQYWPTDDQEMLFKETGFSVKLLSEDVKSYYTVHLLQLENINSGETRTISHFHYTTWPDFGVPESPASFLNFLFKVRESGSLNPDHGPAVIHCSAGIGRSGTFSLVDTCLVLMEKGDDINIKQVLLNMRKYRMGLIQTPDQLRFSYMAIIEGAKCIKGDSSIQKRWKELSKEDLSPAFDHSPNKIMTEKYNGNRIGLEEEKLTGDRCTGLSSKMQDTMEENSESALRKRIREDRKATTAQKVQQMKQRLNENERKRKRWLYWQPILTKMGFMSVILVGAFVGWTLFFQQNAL
As to the kind of experiment: TCPTP inhibitory activity. The format is biochemical. The note with it: pNPP substrate; tested up to 100 μM. Here is the method:
The effectiveness and safety of a PTP1B inhibitor primarily depend on its selectivity, given that protein tyrosine phosphatases share significant structural homology within their catalytic domains. […] Ertiprotafib was also included in this study.
(§1) Aliquots of 0–10 μL of the test compounds (triplicate) were taken and incubated for 15 min at 37 °C with 85 μL of Tris buffer solution (50 mM, pH 6.8) containing PTP1B enzyme and 5 μL of p-nitrophenyl phosphate substrate (pNPP, 10 mM). The absorbance of the hydrolysis product, p-nitrophenol (pNP), was measured at 405 nm using a 96-microplate absorbance reader (Accuris SmartReader 96). The inhibitory activity was determined according to eq . %enzyme=(A405b/A405c)×100 1 Where: % enzyme is the percentage of inhibition for PTP1B or TCPTP
(§2) The IC50 was calculated using regression analysis, eq : %inhibition=A100/1+(I/IC50)^s 2 Where: A100: Maximum inhibition

In data set [2] the target is T2, hPTP1B1–400 (Homo sapiens, UniProt P18031).
T2 construct: h PTP1B 1–400 IC 50 (μM ± S.D); made in house
T2 sequence (P18031 1-400): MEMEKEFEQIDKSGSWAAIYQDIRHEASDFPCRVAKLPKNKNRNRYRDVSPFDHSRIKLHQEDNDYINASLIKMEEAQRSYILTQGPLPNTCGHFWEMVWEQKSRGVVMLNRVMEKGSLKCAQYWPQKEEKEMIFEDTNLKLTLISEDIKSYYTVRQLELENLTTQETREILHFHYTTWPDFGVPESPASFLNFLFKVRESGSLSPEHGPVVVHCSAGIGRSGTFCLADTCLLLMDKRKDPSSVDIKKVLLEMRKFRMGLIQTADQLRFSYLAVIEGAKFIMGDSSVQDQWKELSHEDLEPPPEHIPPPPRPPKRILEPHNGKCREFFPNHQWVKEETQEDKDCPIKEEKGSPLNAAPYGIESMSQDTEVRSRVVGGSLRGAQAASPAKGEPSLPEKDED
The experiment in a line: Enzymatic kinetics studies (Lineweaver–Burk, model fitting). The data set is classed as biochemical. To be noted: for inhibition type: hPTP1B1–400, best fit model; for Km / Vmax: hPTP1B1–400 with inhibitor. The procedure: Kinetic analyses were conducted using varying concentrations of substrate and inhibitor.
Five increasing concentrations of each inhibitor were tested, according to their previously determined IC50 values. The negative control was prepared by omitting the inhibitor in the presence of the enzyme and substrate. The Supporting Information includes detailed eqs (E1–E5) used to determine the kinetic parameters and mechanisms involved in PTP1B inhibition.
Equation 1 was used to obtain enzyme kinetic parameters by fitting data to the Michaelis-Menten model (Origin Pro
The equations defined for the following non-linear inhibition models were used to determine the mechanism of
PTP1B inhibition: competitive (E2), non-competitive (E3), uncompetitive (E4), and mixed (E5) (Origin Pro 2018 (64
(1+ ( ))(x05nh ) + (1+ ( )) (x05 nh)
Vmax is the maximum velocity, x is the substrate concentration, i is the inhibitor concentration, nh is the number of
Hill. Ki is the inhibition constant, and Km is the Michaelis constant.

Data set [3] has as its system hPTP1B1–393. The note with it: reported elsewhere; cited from earlier work.
The subject of data set [4] is HFF-1 cells. The experiment in a line: Cytotoxicity, Sulforhodamine B assay. The format is cell-based, human. The note with it: HFF-1 proliferation, 48-h incubation, 0.78 μM to 100 μM. Here is the method: Given the significance of a drug candidate’s toxicity in relation to its inhibition potential, a cytotoxicity assay was conducted using Normal Human Foreskin Fibroblasts (HFF-1).
All assays were carried out in triplicate. Cell proliferation was determined by the Sulforhodamine B assay, and the half-maximal cytotoxic concentration (CC50) was determined by Probit analysis.
For orientation: Sulforhodamine B stains cellular protein and so reports cell mass.

Data set [5] deals with T2, hPTP1B1–400. As to the kind of experiment: PTP1B inhibition, pNPP hydrolysis, long form. To be noted: pNPP substrate, 15 min 37 °C, pH 6.8; ± S.D. The data set is classed as biochemical. Here is the method:
The inhibitory activity of PTP1B was assessed using the long form of the PTP1B enzyme (hPTP1B1–400). This enzyme comprises a highly conserved N-terminal catalytic domain, known as the PTP domain (PTP1B1–300), in addition to an intrinsically disordered regulatory domain (PTP1B301–400).
The IC50 values obtained from these tests are detailed in Table .
as §1, §2

Data set [6] relates to STZ-induced diabetic rats. To be noted: earlier study of the group; cited from earlier work.
Data set [7] has as its target T1, hTCPTP1–415. To be noted: read-out: hTCPTP1–415 IC50, cited from earlier work.
For data set [8], the target named is T3, hPTP1B1–285 (Homo sapiens, UniProt P18031).
T3 construct: h PTP1B 1–285 IC 50 (μM ± S.D); made in house
T3 sequence (P18031 1-285): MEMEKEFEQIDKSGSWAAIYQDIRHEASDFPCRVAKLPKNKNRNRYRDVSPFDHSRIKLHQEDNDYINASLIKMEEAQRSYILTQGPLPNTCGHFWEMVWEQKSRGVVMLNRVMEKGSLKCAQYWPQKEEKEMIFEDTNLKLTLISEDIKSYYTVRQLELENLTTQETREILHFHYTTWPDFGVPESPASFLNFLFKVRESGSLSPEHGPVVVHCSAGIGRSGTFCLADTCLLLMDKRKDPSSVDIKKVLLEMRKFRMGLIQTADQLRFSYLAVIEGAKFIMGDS
The note with it: footnote c: IC50 values retrieved from the reference; cited from earlier work.

Data set [9] addresses T2, hPTP1B1–400. To be noted: footnote c: IC50 values retrieved from the reference; previously tested by our group; cited from earlier work.
In data set [10] the test system is HepG2 cells. The experiment in a line: Western blotting, HepG2 normal model. The note with it: 24 h. The data set is classed as cell-based, human. The procedure:
(§3) HepG2 cells were obtained directly from ATCC (HB-8065) and cultured in DMEM with low glucose, supplemented with fetal bovine serum, 100 U/mL penicillin G, and […] streptomycin. The media was freshly prepared and sterilized by filtration. Cells were maintained with a maximum of 10 passages before being discarded. For cell counting, the cells were washed twice with phosphate-buffered saline (PBS), trypsinized, and counted using a Neubauer chamber. For the insulin-resistant model, 75,000 cells per well were seeded in 6-well plates at 37 °C in 5% CO2 and cultured for 72 h. Subsequently, insulin (0.1 μM) was added to induce insulin resistance for 24 h. After this period, inhibitors were incubated for 24 h, followed by a final 30 min insulin stimulation (0.1 μM) before protein extraction. For the normal model, 75,000 cells per well were seeded in 6-well plates at 37 °C in 5% CO2 and cultured for 96 h. After that, the cells were incubated with the inhibitors for 24 h, followed by protein extraction.
(§4) Treated cells were washed twice with 1 mL of PBS, and proteins were extracted using 300 μL of a buffer solution containing 10% sodium deoxycholate in 10% TEAB, supplemented with a protease and phosphatase inhibitor cocktail. The extracts were heated at 80 °C for 5 min and dissociated by repeated passages through an insulin syringe. The cell extracts were centrifuged at 15,000 rpm for 15 min at 4 °C, and the supernatant was collected. Protein quantification was performed using the bicinchoninic acid assay, and aliquots were prepared for Western blotting. SDS-PAGE was conducted, and proteins were transferred onto a nitrocellulose membrane. The membrane was blocked with 10% skim milk in TBST for 1 h and incubated overnight with primary antibodies (1:400 dilution). Secondary antibodies conjugated to horseradish peroxidase were diluted 1:2,000, and the membranes were incubated for 1 h at room temperature. Blots were visualized using the ChemiDoc MP (Bio-Rad), and densitometric analysis was performed with ImageJ (U.S. National Institutes of Health). Statistical analyses were conducted using GraphPad Prism 8.0.
compounds at 24 h of treatment. β-actin was employed as loading control. b) Densitometric analysis of western blot images
employing ImageJ analysis software. Bar graphs represent the mean ± SEM of normalized values. The control levels were set to
1. Asterisks indicate statistical significance according to the Dunn test. p* < 0.05
(§5) (1 picture or pasted object on this page, not shown here)
For orientation: In western blotting, separated proteins are transferred to a membrane and probed.

Data set [11] has as its system insulin-resistant HepG2 cells. The experiment in a line: Western blotting, insulin-resistant HepG2 model. The format is cell-based, human. To be noted: 24 h. Here is the method: as §3, §4
resistance model in HepG2 cells . a) Western blotting representative analysis (n=3) of PTP1B, p -AKT, p-IRS1 and p-STAT3 levels
of HepG2 cells treated with the compounds at 24 h of treatment. β-actin was employed as loading control. b) Densitometric
analysis of western blot images employing ImageJ analysis software. Bar graphs represent the mean ± SEM of normalized values.
The control levels were set to 1. Asterisks indicate statistical significance according to the Dunn test. p* < 0.05.
as §5

The test system of data set [12] is HepG2 cells. The experiment in a line: Cell viability of HepG2 with crystal violet. The format is cell-based, human. The note with it: 1, 10, and 30 µM for 24, 48 and 72 h. The procedure: A 96-well plate was seeded with 3,000 HepG2 cells per well and incubated for 72 h. Subsequently, the cells were treated with test compounds at various concentrations for 24, 48, and 72 h. After incubation, the medium was removed, and 100 μL of 1% glutaraldehyde was added for 15 min. The glutaraldehyde was then removed, and 50 μL of 0.5% crystal violet (dissolved in 25% methanol) was added for 30 min. The crystal violet staining solution was subsequently removed, and the plate was thoroughly rinsed with tap water. The precipitate was dissolved in a 10% acetic acid solution, mixed for 15 min, and the absorbance was measured at 590 nm using a plate reader (xMark Microplate Spectrophotometer, Bio-Rad).
Figure S48. Cell viability assessment by crystal violet staining. HepG2 cell viability was evaluated after treatment with the respective compounds at concentrations of 1 , 10, and 30 µM for 24 , 48 and 72 hours. Bar graphs represent mean ± SEM. No significant differences were detected using ANOVA. […]

Data set [13] has as its target T2, hPTP1B1–400. The experiment in a line: PTP1B inhibition, pNPP hydrolysis, long form. The format is biochemical.

As for `Cc1cc(-c2c3ccccc3c(Br)c3sc(C)c(C)c23)cc(C)c1O[C@H](Cc1ccccc1)C(=O)O` [Ertiprotafib, reference compound], the IC50 in data set [1] is greater than 100 µM. Further, in data set [2], the inhibition type entry is “uncompetitive”, the Km is 940 ± 190 µM and the Vmax amounted to 1.71 ± 0.24 mM/min. The inhibition type result in data set [3] was “noncompetitive inhibition”.
Take `CC1(C)c2[nH]c3ccc(C(F)(F)F)cc3c2C[C@]2(C)[C@H]3C(=O)C=C4[C@@H]5C[C@@](C)(C(=O)O)CC[C@]5(C)CC[C@@]4(C)[C@]3(C)CC[C@@H]12` [FC-114, reference compound]: half-maximal cytotoxicity in [4] (CC50) was put at 59.5 ± 3 µM. This compound also yielded an IC50 in data set [5] of 1.75 ± 0.08 µM. The antihyperglycemic effects result in data set [6] is “superior antihyperglycemic effects compared to glibenclamide and acarbose, but did not outperform pioglitazone”.
For the compound `O=C(O)C(=O)Nc1sc2c(c1C(=O)O)CCNC2` [TCS401], the IC50 was 6.7 ± 0.6 µM in data set [7] (footnote c: IC50 values retrieved from the reference, previously tested by our group); 12.4 ± 1 µM in data set [8]; 8.1 ± 1 µM in [9].
For the compound `C[C@H]1[C@H](C)CC[C@]2(C(=O)O)CC[C@]3(C)C(=CC[C@@H]4[C@@]5(C)CC[C@H](O)C(C)(C)[C@@H]5CC[C@]43C)[C@H]12` [Ursolic acid], in data set [10], the “AKT phosphorylation (p-AKT) levels” value is listed as “did not show significant changes”; the PTP1B levels entry was “neither metformin, ursolic acid, nor the GA derivatives significantly reduced PTP1B levels”; the p-IRS levels entry was “did not show significant changes”; the p-STAT3 levels entry is “did not show significant changes”. Besides, in data set [11], the “AKT phosphorylation (p-AKT) levels” value is on record as “did not show significant changes”; the PTP1B levels result is on record as “neither metformin, ursolic acid, nor the GA derivatives significantly reduced PTP1B levels”; the p-IRS levels entry is reported as “did not show significant changes”; the p-STAT3 levels entry is reported as “did not show significant changes”. Further, in data set [2], the inhibition type result is recorded as “mixed-type”, the Km is 1700 ± 330 µM and the Vmax is reported as 0.63 ± 0.08 mM/min. Besides, the inhibition type entry in data set [2] (listed as ursolic acid) was “mixed”. Also, in [7] (footnote b: IC50 values retrieved from the reference), the IC50 is greater than 400 µM. Besides, the HepG2 cell viability result in [12] is recorded as “No significant differences”.
For `CC1(C)c2c(cnn2-c2ccc(C(=O)O)cc2)C[C@]2(C)[C@H]3C(=O)C=C4[C@@H]5C[C@@](C)(C(=O)O)CC[C@]5(C)CC[C@@]4(C)[C@]3(C)CC[C@@H]12` [compound 5e, (20β)-2′-(4-Carboxyphenyl)-11-oxo-2′H-oleana-2,12-dieno[3,2-c]pyrazol-29-oic Acid], in data set [13], the stability during evaluation result is “unstable and rapidly degraded during evaluation”.
